Reference: paper PMC8691750, “Euphorbia Factor L2 ameliorates the Progression of K/BxN Serum-Induced Arthritis by Blocking TLR7 Mediated IRAK4/IKKβ/IRF5 and NF-kB Signaling Pathways” (Frontiers in Pharmacology, 2021)
Several values for one entry are separate records, joined by “and”; a condition that tells them apart may be missing. Equal entries are not always repeated.

Tested on: TLR signalling pathway genes
Assay: Toll-like Receptor Pathway PCR array of ankles
Assay type: in vivo, C57BL/6 mice
Conditions: for S40/SIA (fold change) / log2(fold change) S40/SIA: S40 group vs SIA group
Experimental: Total RNA was isolated from the right ankles using the TRIzol Reagent (Invitrogen) and purified with RNeasy Mini Kit and RNase-Free DNase Set (Qiagen). RNA quality was determined using a spectrophotometer and was reversely transcribed using Wcgene® mRNA cDNA kit. The complementary DNA was used on the Toll-like Receptor Pathway PCR Array plate (Wcgene® biotech, China).

[1] = ankles of STA mice, single-animal samples S401-S405
[2] = ankles of STA mice, single-animal samples S401-S405, relative to GAPDH
[3] = ankles, STA mice + EFL2 i.p., individual mice EFL2-1 to EFL2-4
[4] = ankles, EFL2 40 mg/kg i.p. treated STA mice versus STA mice

C=C1C(OC(=O)c2ccccc2)CC2C(C=C(C)C(=O)C3(OC(C)=O)CC(C)C(OC(=O)c4ccccc4)C3C1OC(C)=O)C2(C)C (centres unmarked) [EFL2, Euphorbia factor L2]
S40/SIA (fold change) (Tlr8 mRNA): 0.1573
log2(fold change) S40/SIA (Tlr8 mRNA): -2.668
S40/SIA (fold change) (Tlr9 mRNA): 0.05745
log2(fold change) S40/SIA (Tlr9 mRNA): -4.122
S40/SIA (fold change) (Tnf mRNA): 0.271
log2(fold change) S40/SIA (Tnf mRNA): -1.884
S40/SIA (fold change) (Tnfaip3 mRNA): 0.2367
log2(fold change) S40/SIA (Tnfaip3 mRNA): -2.079
S40/SIA (fold change) (Tollip mRNA): 0.6335
log2(fold change) S40/SIA (Tollip mRNA): -0.6586
S40/SIA (fold change) (Traf6 mRNA): 0.511
log2(fold change) S40/SIA (Traf6 mRNA): -0.9687
S40/SIA (fold change) (Ube2v1 mRNA): 0.4284
log2(fold change) S40/SIA (Ube2v1 mRNA): -1.223
Rel Cт [1]: 30.17 and 31.86 and 31.19
Rela Cт [1]: 27.60 and 28.97 and 29.92
Ripk2 Cт [1]: 31.20 and 31.97 and 31.38
Tbk1 Cт [1]: 35.01 and 33.84 and 30.91
Tbp Cт [1]: 32.79 and 35.04 and 35.08 and 35.26
Ticam1 Cт [1]: 30.63 and 31.57 and 31.92 and 31.40
Ticam2 Cт [1]: 31.98 and 32.33 and 32.54 and 32.28
Tirap Cт [1]: 31.54 and 33.23 and 32.87
Tlr1 Cт [1]: 31.47 and 31.48 and 31.36 and 33.05
Tlr2 Cт [1]: 29.79 and 30.45 and 30.70
Tlr3 Cт [1]: 31.62 and 33.01 and 32.92 and 28.89
Tlr4 Cт [1]: 29.41 and 30.97 and 30.43 and 30.84
Tlr5 Cт [1]: 33.11 and 33.16 and 33.55 and 34.74
Tlr6 Cт [1]: 32.61 and 34.42 and 28.05
Tlr7 Cт [1]: 33.17 and 34.60 and 34.75
Tlr8 Cт [1]: 31.72 and 32.87
Tlr9 Cт [1]: 33.32 and 37.49
Tnf Cт [1]: 33.75 and 35.02 and 34.91
Tnfaip3 Cт [1]: 31.00 and 33.42 and 32.49 and 32.20
Tnfrsf1a Cт [1]: 27.55 and 28.63 and 28.76
Tollip Cт [1]: 29.42 and 30.42 and 30.55
Tradd Cт [1]: 31.88 and 32.32 and 32.17 and 32.45
Traf6 Cт [1]: 30.31 and 30.69 and 31.10 and 30.54
Ube2n Cт [1]: 27.18 and 28.39 and 28.43 and 28.55
Ube2v1 Cт [1]: 26.90 and 29.51 and 28.01 and 27.92
Rel fold-GAPDH [2]: 0.005407 and 0.004928 and 0.005486
Ripk2 fold-GAPDH [2]: 0.002639 and 0.004565 and 0.002897
Tlr2 fold-GAPDH [2]: 0.007046 and 0.01307 and 0.007729
Tlr8 fold-GAPDH [2]: 0.001839 and 0.001034
Tnf fold-GAPDH [2]: 0.0004529 and 0.0005528 and 0.0004186
Tnfaip3 fold-GAPDH [2]: 0.003028 and 0.001676 and 0.002239 and 0.001643
Tollip fold-GAPDH [2]: 0.009094 and 0.01333 and 0.008592
Becn1 relative expression to GAPDH [3]: 0.001891 and 0.007192 and 0.004096
Btk relative expression to GAPDH [3]: 0.001831 and 0.004678 and 0.001063 and 0.002403
Casp8 relative expression to GAPDH [3]: 0.01358 and 0.009475 and 0.01634
Ccl2 relative expression to GAPDH [3]: 0.00629 and 0.0002036 and 0.01529
Ccl11 relative expression to GAPDH [3]: 0.008836 and 0.01327 and 0.005579 and 0.01036
Cd86 relative expression to GAPDH [3]: 0.0005777 and 0.0007714 and 0.0003428 and 0.0007215
Chuk relative expression to GAPDH [3]: 0.01087 and 0.008829 and 0.008767
Clec4e relative expression to GAPDH [3]: 0.002249 and 0.0004993 and 4.1493e-5 and 0.0002637
Cxcl10 relative expression to GAPDH [3]: 2.1064e-5
Elk1 relative expression to GAPDH [3]: 0.005652 and 0.006734 and 0.002589 and 0.006009
Fadd relative expression to GAPDH [3]: 0.0009207 and 0.00158 and 0.0009332 and 0.001977
Hras1 relative expression to GAPDH [3]: 0.02746 and 0.02268 and 0.01475 and 0.02419
Hspd1 relative expression to GAPDH [3]: 0.02518 and 0.003019 and 0.01313 and 0.02796
IRF5 relative expression to GAPDH [3]: 0.004692 and 0.004033 and 0.001353 and 0.004631
Il1b relative expression to GAPDH [3]: 0.0009616 and 0.0008 and 0.0006699 and 0.005996
Il6 relative expression to GAPDH [3]: 0.0008677 and 0.0003997 and 0.0006556 and 0.002971
Il10 relative expression to GAPDH [3]: 0.0002257 and 7.048e-5 and 9.932e-5 and 0.0001425
Ilr1 relative expression to GAPDH [3]: 0.01561 and 0.01023 and 0.00774 and 0.01383
Irak2 relative expression to GAPDH [3]: 0.004831 and 0.004355 and 0.002516 and 0.003024
Irak3 relative expression to GAPDH [3]: 0.02176 and 0.01462 and 0.00868 and 0.01639
Irf1 relative expression to GAPDH [3]: 0.008232 and 0.006938
Irf3 relative expression to GAPDH [3]: 0.01143 and 0.004857 and 0.01116
Jun relative expression to GAPDH [3]: 0.0443 and 0.03642 and 0.03036 and 0.04078
Ly96 relative expression to GAPDH [3]: 0.008818 and 0.008037 and 0.003545 and 0.00648
Map2k4 relative expression to GAPDH [3]: 0.009032 and 0.01171 and 0.005161 and 0.006054
Myd88 relative expression to GAPDH [3]: 0.0089 and 0.006533 and 0.004478 and 0.009066
Nfkb2 relative expression to GAPDH [3]: 0.008129 and 0.004372 and 0.004079 and 0.005983
Nfkbia relative expression to GAPDH [3]: 0.03111 and 0.02056 and 0.01675 and 0.03064
Nfkbib relative expression to GAPDH [3]: 0.005737 and 0.004539 and 0.002397 and 0.00388
Nr2c2 relative expression to GAPDH [3]: 0.009954 and 0.006912 and 0.004742 and 0.008167
Peli1 relative expression to GAPDH [3]: 0.02035 and 0.01296 and 0.0006428 and 0.01623
Pglyrp1 relative expression to GAPDH [3]: 0.0004159 and 0.002383 and 0.001422
Ptgs2 relative expression to GAPDH [3]: 0.000397 and 0.0002674 and 0.0003018 and 0.001434
Rel relative expression to GAPDH [3]: 0.004928 and 0.005486 and 0.005407
Ticam1 relative expression to GAPDH [3]: 0.006005 and 0.003329 and 0.002855 and 0.003921
Tlr2 relative expression to GAPDH [3]: 0.01307 and 0.007729 and 0.007046
Tlr3 relative expression to GAPDH [3]: 0.002217 and 0.00166 and 0.01628 and 0.001979
Tlr4 relative expression to GAPDH [3]: 0.00914 and 0.009306 and 0.004225 and 0.009146
Tlr5 relative expression to GAPDH [3]: 0.001998 and 0.001071 and 0.0002832 and 0.0007049
Tlr7 relative expression to GAPDH [3]: 0.0007393 and 0.00028 and 0.0006762
Tlr8 relative expression to GAPDH [3]: 0.001034 and 0.001839
Tlr9 relative expression to GAPDH [3]: 9.931e-5 and 0.0006069
Tnf relative expression to GAPDH [3]: 0.0005528 and 0.0004186 and 0.0004529
Tnfaip3 relative expression to GAPDH [3]: 0.001676 and 0.002239 and 0.001643 and 0.003028
Tollip relative expression to GAPDH [3]: 0.01333 and 0.008592 and 0.009094
Traf6 relative expression to GAPDH [3]: 0.01108 and 0.005865 and 0.005186 and 0.004909
Ube2v1 relative expression to GAPDH [3]: 0.02505 and 0.04987 and 0.0319 and 0.05212
Becn1 fold change S40/SIA [4]: 0.2727
Btk fold change S40/SIA [4]: 0.3155
Casp8 fold change S40/SIA [4]: 0.2393
Ccl2 fold change S40/SIA [4]: 0.0326
Ccl11 fold change S40/SIA [4]: 1.864
Cd86 fold change S40/SIA [4]: 0.1925
Chuk fold change S40/SIA [4]: 0.3313
Clec4e fold change S40/SIA [4]: 0.0859
Cxcl10 fold change S40/SIA [4]: 0.002337
Elk1 fold change S40/SIA [4]: 0.3565
Fadd fold change S40/SIA [4]: 0.1995
Hras1 fold change S40/SIA [4]: 0.4915
Hspd1 fold change S40/SIA [4]: 0.2339
IRF5 fold change S40/SIA [4]: 0.3677
Il1b fold change S40/SIA [4]: 0.0229
Il6 fold change S40/SIA [4]: 0.03478
Il10 fold change S40/SIA [4]: 0.2443
Ilr1 fold change S40/SIA [4]: 0.09556
Irak2 fold change S40/SIA [4]: 0.4814
Irak3 fold change S40/SIA [4]: 0.4891
Irf1 fold change S40/SIA [4]: 0.3319
Irf3 fold change S40/SIA [4]: 0.3241
Jun fold change S40/SIA [4]: 0.3678
Ly96 fold change S40/SIA [4]: 0.3878
Map2k4 fold change S40/SIA [4]: 0.8651
Myd88 fold change S40/SIA [4]: 0.1447
Nfkb2 fold change S40/SIA [4]: 0.2395
Nfkbia fold change S40/SIA [4]: 0.2445
Nfkbib fold change S40/SIA [4]: 0.4073
Nr2c2 fold change S40/SIA [4]: 0.5521
Peli1 fold change S40/SIA [4]: 0.462
Pglyrp1 fold change S40/SIA [4]: 0.2161
Ptgs2 fold change S40/SIA [4]: 0.03786
Rel fold change S40/SIA [4]: 0.2762
Ticam1 fold change S40/SIA [4]: 0.59
Tlr2 fold change S40/SIA [4]: 0.1682
Tlr3 fold change S40/SIA [4]: 0.7859
Tlr4 fold change S40/SIA [4]: 0.5705
Tlr5 fold change S40/SIA [4]: 0.188
Tlr7 fold change S40/SIA [4]: 0.09461
Tlr8 fold change S40/SIA [4]: 0.1573
Tlr9 fold change S40/SIA [4]: 0.05745
Tnf fold change S40/SIA [4]: 0.271
Tnfaip3 fold change S40/SIA [4]: 0.2367
Tollip fold change S40/SIA [4]: 0.6335
Traf6 fold change S40/SIA [4]: 0.511
Ube2v1 fold change S40/SIA [4]: 0.4284
